Laboratory results as given in US10875871B2, “Photosensitizer” (Tampereen Korkeakoulusäätiö sr, priority 2016, dated 2020).
Entries after “also recorded” stand apart in the source; their conditions may differ.

Tests used:
[1] = tested on: Escherichia coli (XL1-Blue) carrying plasmid pBAV1C-T5-lux; assay: Screening test with bioluminescent E. coli on dyed filter paper discs; format: cell-based; conditions: dyed filter paper discs on LA agar, 1 hour illumination, 18 mWcm−2
Description: (§1) The efficiency of dyes (Pc1, Pc2, Pc3, Pc4) was screened by conducting antimicrobial test with bioluminescent bacterial strains Escherichia coli (XL1-Blue, Stratagene, USA) and Acinetobacter baylyi ADP1 (DSM 24193) carrying plasmid pBAV1C-T5-lux (the plasmid is chloramphenicol resistance derivate of the pBAV1K-T5-lux plasmid (Addgene #55800). The filter papers (12.25 cm^2) were soaked in respective dye solution (0.9 mg dye in 200 μl solvent) and allowed to dry on it. After drying, three circular discs (0.5 cm diameter) were cut from each filter paper and pasted on the LA agar (15 g/l agar, 10 g/l tryptone, 5 g/l yeast extract, 5 g/l NaCl) gel plate in such a way that each row corresponds to each dye. A circular dark screen of 0.3 cm height with a square hole in the center was placed over the agar plate. The square hole was cut in such a way that, one column which includes all the four dyes will be under the dark area of the screen while the two remaining columns will be inside the square hole. Two filters [KG3 band pass filter (315-750 nm transmittance) and ? […] Luminescence arising from the setup was recorded (Xenogen IVIS 100) before the microbial deposition on the filter paper discs. […] Luminescence of the agar plate before and after illumination of 1 hour was measured and the efficient dye which produces less luminescence was screened out from the set.

[2] = tested on: Acinetobacter baylyi ADP1 carrying plasmid pBAV1C-T5-lux; assay: Screening test with bioluminescent Acinetobacter baylyi on dyed filter paper discs; format: cell-based; conditions: dyed filter paper discs on LA agar, 1 hour illumination, 18 mWcm−2
Description: as §1

E. coli MG1655 = assay: Colony forming unit (CFU) method, solar simulator; format: cell-based, Escherichia coli; conditions: for Colony counts after incubation / CFU/ml / Colony counts after incubation (Average) / Colony counts after incubation (Duplicate): E. Coli
Description: (§2) The antimicrobial efficiency of the dye was confirmed by CFU method using microbes E. coli MG1655 (E. coli Genetic Resources at Yale) and A. baylyi ADP1 (ATCC 33305). […] The microplate was illuminated in the solar simulator for 1 hour. UV-IR radiations were cut off using a combination of KG3 band pass filter (315-750 nm transmittance) and ? c-17 yellow filter (transmittance >485 nm). Similarly, light control samples were prepared by depositing microbial medium over dyed and un-dyed samples by covering microplate with aluminum foil for 1 h at room temperature. After 1 h of illumination or incubation, the microbes were extracted with LB medium (10 g/l tryptone, 5 g/l yeast extract, 5 g/l NaCl) (975 μl) and serial dilutions were made from each extract. The dilutions were then plated on LA agar plates and incubated at 30° C. overnight. The number of colonies grown on the agar plate was counted and CFUs per milliliter were calculated from it.

A. baylyi ADP1 = assay: Colony forming unit (CFU) method, solar simulator; format: cell-based, Acinetobacter baylyi; conditions: for Colony counts after incubation / CFU/ml / Colony counts after incubation (Average) / Colony counts after incubation (Duplicate): Acinetobacter baylyi
Description: as §2

E. coli = assay: Antimicrobial inactivation under consumer LED lamp; format: cell-based, Escherichia coli; conditions: dyed filter paper, 1 h illumination from LED lamp
Description: as §2
(§3) The spectrum of light emitted from the lamp prior to the experiments was measured. […] In addition, the power density of the lamp was also measured at different distances. […] The absorptance of phthalocyanine Pc4 and porphyrin ZnPf papers were calculated from reflectance and transmittance measurement of dyed papers using integrating sphere (IS) detector. The absorptance profiles were very similar to the absorbance measurement in solution. […]

A. baylyi = assay: Antimicrobial inactivation under consumer LED lamp; format: cell-based, Acinetobacter baylyi; conditions: dyed filter paper, 1 h illumination from LED lamp
Description: as §2, with “The microplate was illuminated in the solar simulator for 1 hour.” left out
as §3

[3] = Leeching test of dyed paper in PBS buffer; format: physicochemical
Description: Stability of the dye Pc4 against was tested with PBS buffer pH 7.2. The absorbance and emission of PBS buffer incubated with dye papers were measured for checking the leeching (FIGS. 9a and b). […] Absorbance and emission of PBS buffer from each vial was measured after 1 h to check the leeching of dyes from papers.

[4] = Pc4 filter paper-Dark 1 h, dilution factor 2.50E−03, 0.1 ml plated
[5] = Pc4 filter paper-Dark 1 h, dilution factor 2.50E−04, 0.1 ml plated
[6] = Pc4 filter paper-Dark 1 h, dilution factor 2.50E−05, 0.1 ml plated
[7] = Pc4 filter paper-Dark 1 h, dilution factor 2.50E−06, 0.1 ml plated
[8] = illuminated Pc4 filter paper 1 h, dilution factor 2.50E−02, 0.1 ml plated
[9] = illuminated Pc4 filter paper 1 h, dilution factor 2.50E−03, 0.1 ml plated
[10] = illuminated Pc4 filter paper 1 h, dilution factor 2.50E−04, 0.1 ml plated
[11] = illuminated Pc4 filter paper 1 h, dilution factor 2.50E−05, 0.1 ml plated
[12] = illuminated Pc4 filter paper 1 h, dilution factor 2.50E−06, 0.1 ml plated
[13] = Pc4 filter paper-Dark 1 h, dilution factor 2.50E−07, 0.1 ml plated
[14] = illuminated Pc4 filter paper 1 h, dilution factor 2.50E−07, 0.1 ml plated

{4,4′,4″,4″-(29H,31H-phthalocyanine-1(4),8(11),15(18),22(25)-tetrayl-κ 4N29,N30,N31,N32)tetrakis [1-methylpyridiniumato(2-)]}zinc(4+) tetraiodide [Pc4]
efficiency of dye (luminescence after illumination) [1]: most efficient
efficiency of dye (luminescence after illumination) [2]: most efficient
Colony counts after incubation (E. coli MG1655; Pc4 filter paper-Dark 1 h, dilution factor 2.50E−02, 0.1 ml plated): Too many to count
Colony counts after incubation (E. coli MG1655; [4]): Too many to count
Colony counts after incubation (E. coli MG1655; [5]): Too many to count
Colony counts after incubation (E. coli MG1655; [6]): Too many to count
CFU/ml (E. coli MG1655; [7]): 1.51E+09 CFU/ml
Colony counts after incubation (E. coli MG1655; [7]): 327
Colony counts after incubation (Average) (E. coli MG1655; [7]): 378
Colony counts after incubation (Duplicate) (E. coli MG1655; [7]): 429
CFU/ml (E. coli MG1655; [8]): 0.00E+00 CFU/ml
Colony counts after incubation (E. coli MG1655; [8]): 0
Colony counts after incubation (Average) (E. coli MG1655; [8]): 0
Colony counts after incubation (Duplicate) (E. coli MG1655; [8]): 0
CFU/ml (E. coli MG1655; [9]): 0.00E+00 CFU/ml
Colony counts after incubation (E. coli MG1655; [9]): 0
Colony counts after incubation (Average) (E. coli MG1655; [9]): 0
Colony counts after incubation (Duplicate) (E. coli MG1655; [9]): 0
CFU/ml (E. coli MG1655; [10]): 0.00E+00 CFU/ml
Colony counts after incubation (E. coli MG1655; [10]): 0
Colony counts after incubation (Average) (E. coli MG1655; [10]): 0
Colony counts after incubation (Duplicate) (E. coli MG1655; [10]): 0
CFU/ml (E. coli MG1655; [11]): 0.00E+00 CFU/ml
Colony counts after incubation (E. coli MG1655; [11]): 0
Colony counts after incubation (Average) (E. coli MG1655; [11]): 0
Colony counts after incubation (Duplicate) (E. coli MG1655; [11]): 0
CFU/ml (E. coli MG1655; [12]): 0.00E+00 CFU/ml
Colony counts after incubation (E. coli MG1655; [12]): 0
Colony counts after incubation (Average) (E. coli MG1655; [12]): 0
Colony counts after incubation (Duplicate) (E. coli MG1655; [12]): 0
microbial growth on plates (E. coli MG1655; E. coli, illuminated Pc4 filter paper, 1 hour solar simulator): No microbial growth
microbial growth on plates (A. baylyi ADP1; A. baylyi, illuminated Pc4 filter paper, 1 hour solar simulator): No microbial growth
Colony counts after incubation (A. baylyi ADP1; [4]): Too many to count
Colony counts after incubation (A. baylyi ADP1; [5]): Too many to count
CFU/ml (A. baylyi ADP1; [6]): 7.06E+07 CFU/ml
Colony counts after incubation (A. baylyi ADP1; [6]): 175
Colony counts after incubation (Average) (A. baylyi ADP1; [6]): 176.5
Colony counts after incubation (Duplicate) (A. baylyi ADP1; [6]): 178
CFU/ml (A. baylyi ADP1; [7]): 5.20E+07 CFU/ml
Colony counts after incubation (A. baylyi ADP1; [7]): 22
Colony counts after incubation (Average) (A. baylyi ADP1; [7]): 13
Colony counts after incubation (Duplicate) (A. baylyi ADP1; [7]): 4
CFU/ml (A. baylyi ADP1; [13]): 1.40E+08 CFU/ml
Colony counts after incubation (A. baylyi ADP1; [13]): 6
Colony counts after incubation (Average) (A. baylyi ADP1; [13]): 3.5
Colony counts after incubation (Duplicate) (A. baylyi ADP1; [13]): 1
CFU/ml (A. baylyi ADP1; [9]): 0.00E+00 CFU/ml
Colony counts after incubation (A. baylyi ADP1; [9]): 0
Colony counts after incubation (Average) (A. baylyi ADP1; [9]): 0
Colony counts after incubation (Duplicate) (A. baylyi ADP1; [9]): 0
CFU/ml (A. baylyi ADP1; [10]): 0.00E+00 CFU/ml
Colony counts after incubation (A. baylyi ADP1; [10]): 0
Colony counts after incubation (Average) (A. baylyi ADP1; [10]): 0
Colony counts after incubation (Duplicate) (A. baylyi ADP1; [10]): 0
CFU/ml (A. baylyi ADP1; [11]): 0.00E+00 CFU/ml
Colony counts after incubation (A. baylyi ADP1; [11]): 0
Colony counts after incubation (Average) (A. baylyi ADP1; [11]): 0
Colony counts after incubation (Duplicate) (A. baylyi ADP1; [11]): 0
CFU/ml (A. baylyi ADP1; [12]): 0.00E+00 CFU/ml
Colony counts after incubation (A. baylyi ADP1; [12]): 0
Colony counts after incubation (Average) (A. baylyi ADP1; [12]): 0
Colony counts after incubation (Duplicate) (A. baylyi ADP1; [12]): 0
CFU/ml (A. baylyi ADP1; [14]): 0.00E+00 CFU/ml
Colony counts after incubation (A. baylyi ADP1; [14]): 0
Colony counts after incubation (Average) (A. baylyi ADP1; [14]): 0
Colony counts after incubation (Duplicate) (A. baylyi ADP1; [14]): 0
inactivation of microorganisms (E. coli): complete inactivation
inactivation of microorganisms (A. baylyi): complete inactivation
absorbance of PBS extract of dyed paper (leeching) ([3]; PBS pH 7.2, 20 h of incubation at room temperature): did not show any peak corresponding to the dye
emission of PBS extract of dyed paper (leeching) ([3]; PBS pH 7.2, excitation at 694 nm): very faint emission peak of negligible intensity
stability against leeching from paper ([3]; dye impregnated on filter paper, PBS buffer pH 7.2): exceptionally high stability against leeching; also recorded: does not release back to solution

C[n+]1ccc(-c2c3nc(c(-c4cc[n+](C)cc4)c4ccc([nH]4)c(-c4cc[n+](C)cc4)c4nc(c(-c5cc[n+](C)cc5)c5ccc2[nH]5)C=C4)C=C3)cc1.I.I.I.I.[Zn+2] [ZnPf, Zn(II)tetrakis[methylpyridinium iodide]porphyrin, reference compound]
inactivation of microorganisms (E. coli): complete inactivation
inactivation of microorganisms (A. baylyi): complete inactivation
absorbance of PBS extract of dyed paper (leeching) ([3]; 28 mg dyed paper in 4 ml PBS pH 7.2, 1 hour, room temperature): strong absorption peak at 422 nm
emission of PBS extract of dyed paper (leeching) ([3]; PBS pH 7.2, excited at 422 nm, after 1 hour of incubation): intense emission peak
